For data set [1], the system named is dopaminergic receptors (B lymphocytes). The following applies: [^3 H spiperone] = 1 nM; L-methionine 500 mg/kg I.P. twice daily over 5 days; n = 10; *P < 0.01; control 17 ± 3. The method, then: (§1) Since nude mice have no thymus gland, all of the lymphocytes of the spleen thereof are of the B type. Thus, these mice have the advantage of presenting pure B lumphocytes for observation. […] The [^3 H] spiperone bindings to striatal membranes (see Europ. J. Pharmacol. 50, 283, 1978) and intact B lymphocytes (see J. Pharm. Pharmacol. 33, 102, 1981) were performed in the same animal.

Data set [2] addresses dopaminergic receptors (striatum) (Mus musculus, UniProt P61168). The method, then: as §1
Data set [3] has as its system Parkinsonism. The following applies: with L-Dopa; J. Amer. Med. Assoc. 230, 305, 1974; cited from earlier work.
For data set [4], the system named is [^3 H] spiperone binding sites (lymphocytes from Parkinsonian patients). The following applies: after treatment, before treatment 7±6.
Data set [5] can be described thus: Water solubility and wettability of L-methionine. The following applies: flakes. It counts as physicochemical.
Data set [6] relates to rats. The following applies: IV; cited from earlier work.
Data set [7] deals with Parkinsonian patients. The following applies: 11 patients, 5 g/day, after 2 weeks, especially on akinesia, tremor and mood.

Structures are written as SMILES.

Sequence of dopaminergic receptors (striatum) (P61168 whole entry): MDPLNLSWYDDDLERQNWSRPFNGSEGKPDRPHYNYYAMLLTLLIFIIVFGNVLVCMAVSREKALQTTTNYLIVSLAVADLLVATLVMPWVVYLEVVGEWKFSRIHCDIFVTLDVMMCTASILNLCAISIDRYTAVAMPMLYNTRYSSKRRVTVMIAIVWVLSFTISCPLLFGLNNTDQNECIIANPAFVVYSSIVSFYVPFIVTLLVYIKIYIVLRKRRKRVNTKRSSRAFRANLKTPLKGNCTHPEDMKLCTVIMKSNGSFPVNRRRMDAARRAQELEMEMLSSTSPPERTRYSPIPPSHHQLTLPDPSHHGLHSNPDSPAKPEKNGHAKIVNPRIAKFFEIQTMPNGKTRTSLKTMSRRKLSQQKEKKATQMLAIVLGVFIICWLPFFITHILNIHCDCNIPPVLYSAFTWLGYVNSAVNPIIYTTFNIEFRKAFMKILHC

With `CSCC[C@H](N)C(=O)O` [L-methionine], the “[^3 H] spiperone binding, B lymphocytes” value in data set [1] is on record as 37 ± 5 fmoles/10^6 cells. In data set [2] (KD of [^3 H] spiperone (not of L-methionine), striatum of treated mice, chronic treatment, control 0.17 nM), the “affinity constant [KD]” value turned out to be 0.20 nM. For the same molecule, the “[^3 H] spiperone binding, striatum” value in data set [2] ([^3 H spiperone] = 0.3 nM, L-methionine 500 mg/kg I.P. twice daily over 5 days, n = 10, **P < 0.001, control 40 ± 1) was determined as 62 ± 3 fmoles/mg protein. The “number of binding sites [Bmax]” value in data set [2] ([^3 H] spiperone, striatum of treated mice, chronic treatment, control 302) was determined as 491 fmoles/mg protein. Besides, the “change in affinity constant [KD]” value in data set [2] ([^3 H] spiperone, striatum, chronic treatment of L-methionine) is on record as “no change in the affinity constant was detected”. Moreover, the “effect on L-Dopa effectiveness in Parkinsonism” value in data set [3] was “may reverse the effectiveness of L-Dopa”. Moreover, the “number of [^3 H] spiperone binding sites to lymphocytes” value in data set [4] is reported as 98±19 fentomoles per 10^6 cells. Further, in data set [5], the solubility in water result is “slightly soluble in water” and the wettability entry was “poorly wettable”. Besides, the LD50 in data set [6] was 4500 mg/kg. Also, the “improvement of Parkinsonism” value in data set [7] is reported as “very good improvement”.
